Results published in article PMC7125537 (Bioorganic & Medicinal Chemistry Letters, 2010).

Test system: DU-145 cells
Experiment: Migration assay
Type: cell-based, human

NC(=S)N/N=C(/c1cccc(Br)c1)c1ccccc1F [analog 1, 3-bromophenyl-2′-fluorophenyl thiosemicarbazone]
inhibition of DU-145 cell migration (in words): effective inhibitor of DU-145 cell invasion and migration
